Data taken from PMC8776063, “Aurora Kinase A Is Involved in Controlling the Localization of Aquaporin-2 in Renal Principal Cells” (International Journal of Molecular Sciences, 2022).
Like-named read-outs stand apart in the source and are kept apart here.

Columns and labels:
AURKA [1] = biological target: T1, AURKA (Homo sapiens, UniProt O14965); experiment: Thermal shift assay; assay type: binding; conditions: read-out: ΔTm AURKA
T1 construct: purchased in-house thermal shift (DSF) kinase panel (SGC Frankfurt); Promega NanoBRET for AURKA/B/C
T1 sequence (O14965 122-403): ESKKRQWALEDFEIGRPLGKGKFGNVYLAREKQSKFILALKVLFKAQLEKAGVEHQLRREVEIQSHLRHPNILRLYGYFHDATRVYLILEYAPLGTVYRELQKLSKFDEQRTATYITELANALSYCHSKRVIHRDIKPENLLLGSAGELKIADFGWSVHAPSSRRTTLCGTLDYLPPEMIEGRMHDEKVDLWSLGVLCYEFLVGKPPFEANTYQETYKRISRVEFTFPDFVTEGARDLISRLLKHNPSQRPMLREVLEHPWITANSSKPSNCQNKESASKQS

BMX = biological target: T2, BMX (Homo sapiens, UniProt P51813); experiment: Thermal shift assay; assay type: binding; conditions: read-out: ΔTm BMX
T2 construct: purchased in-house thermal shift (DSF) kinase panel (SGC Frankfurt); Promega NanoBRET for AURKA/B/C

CAMK1G = biological target: T3, CAMK1G (Homo sapiens, UniProt Q96NX5); experiment: Thermal shift assay; assay type: binding; conditions: read-out: ΔTm CAMK1G
T3 construct: purchased in-house thermal shift (DSF) kinase panel (SGC Frankfurt); Promega NanoBRET for AURKA/B/C

CDK2 = biological target: T4, CDK2 (Homo sapiens, UniProt P24941); experiment: Thermal shift assay; assay type: binding; conditions: read-out: ΔTm CDK2
T4 construct: purchased in-house thermal shift (DSF) kinase panel (SGC Frankfurt); Promega NanoBRET for AURKA/B/C

GSK3B = biological target: T5, GSK3B (Homo sapiens, UniProt P49841); experiment: Thermal shift assay; assay type: binding; conditions: read-out: ΔTm GSK3B
T5 construct: purchased in-house thermal shift (DSF) kinase panel (SGC Frankfurt); Promega NanoBRET for AURKA/B/C

MAPK8 = biological target: T6, MAPK8 (Homo sapiens, UniProt P45983); experiment: Thermal shift assay; assay type: binding; conditions: read-out: ΔTm MAPK8
T6 construct: purchased in-house thermal shift (DSF) kinase panel (SGC Frankfurt); Promega NanoBRET for AURKA/B/C

PAK4 = biological target: T7, PAK4 (Homo sapiens, UniProt O96013); experiment: Thermal shift assay; assay type: binding; conditions: read-out: ΔTm PAK4
T7 construct: purchased in-house thermal shift (DSF) kinase panel (SGC Frankfurt); Promega NanoBRET for AURKA/B/C

TTK = biological target: T8, TTK (Homo sapiens, UniProt P33981); experiment: Thermal shift assay; assay type: binding; conditions: read-out: ΔTm TTK
T8 construct: purchased in-house thermal shift (DSF) kinase panel (SGC Frankfurt); Promega NanoBRET for AURKA/B/C
T8 sequence (P33981 519-808): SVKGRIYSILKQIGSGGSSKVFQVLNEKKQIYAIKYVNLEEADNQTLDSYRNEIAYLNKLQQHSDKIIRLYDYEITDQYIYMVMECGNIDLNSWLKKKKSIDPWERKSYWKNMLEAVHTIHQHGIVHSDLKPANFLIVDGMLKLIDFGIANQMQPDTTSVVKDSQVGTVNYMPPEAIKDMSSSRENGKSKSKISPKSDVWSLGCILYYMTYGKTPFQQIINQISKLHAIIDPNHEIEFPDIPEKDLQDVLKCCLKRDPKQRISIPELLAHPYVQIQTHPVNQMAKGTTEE

ULK3 = biological target: T9, ULK3 (Homo sapiens, UniProt Q6PHR2); experiment: Thermal shift assay; assay type: binding; conditions: read-out: ΔTm ULK3
T9 construct: purchased in-house thermal shift (DSF) kinase panel (SGC Frankfurt); Promega NanoBRET for AURKA/B/C
T9 sequence (Q6PHR2 1-277): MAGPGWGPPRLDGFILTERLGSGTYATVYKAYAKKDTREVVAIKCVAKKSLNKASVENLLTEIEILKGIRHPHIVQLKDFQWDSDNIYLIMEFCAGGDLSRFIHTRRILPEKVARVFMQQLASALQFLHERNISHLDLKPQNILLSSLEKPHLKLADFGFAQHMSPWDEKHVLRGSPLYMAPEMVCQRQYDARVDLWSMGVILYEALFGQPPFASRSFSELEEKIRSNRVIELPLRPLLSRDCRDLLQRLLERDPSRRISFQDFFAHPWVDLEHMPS

VRK1 = biological target: T10, VRK1 (Homo sapiens, UniProt Q99986); experiment: Thermal shift assay; assay type: binding; conditions: read-out: ΔTm VRK1
T10 construct: purchased in-house thermal shift (DSF) kinase panel (SGC Frankfurt); Promega NanoBRET for AURKA/B/C
T10 sequence (Q99986 1-396): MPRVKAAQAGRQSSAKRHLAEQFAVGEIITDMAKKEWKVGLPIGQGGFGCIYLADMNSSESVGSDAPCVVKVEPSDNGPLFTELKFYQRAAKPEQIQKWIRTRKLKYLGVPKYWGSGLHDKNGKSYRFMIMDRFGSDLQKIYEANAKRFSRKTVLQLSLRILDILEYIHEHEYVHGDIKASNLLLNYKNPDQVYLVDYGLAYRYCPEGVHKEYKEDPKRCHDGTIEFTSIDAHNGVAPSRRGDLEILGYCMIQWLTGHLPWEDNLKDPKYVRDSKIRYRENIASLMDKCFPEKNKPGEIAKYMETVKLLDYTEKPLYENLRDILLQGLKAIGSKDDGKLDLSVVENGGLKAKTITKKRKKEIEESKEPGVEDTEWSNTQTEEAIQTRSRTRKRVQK

AURKA [2] = biological target: T11, AURKA (Homo sapiens, UniProt O14965); experiment: NanoBRET assay in HEK293T cells; assay type: cell-based
T11 construct: full-length wild-type AURKA, AURKB, and AURKC were obtained as plasmids cloned in frame with a C-terminal NanoLuc-fusion; host or cells: HEK293T
T11 sequence (O14965 1-403): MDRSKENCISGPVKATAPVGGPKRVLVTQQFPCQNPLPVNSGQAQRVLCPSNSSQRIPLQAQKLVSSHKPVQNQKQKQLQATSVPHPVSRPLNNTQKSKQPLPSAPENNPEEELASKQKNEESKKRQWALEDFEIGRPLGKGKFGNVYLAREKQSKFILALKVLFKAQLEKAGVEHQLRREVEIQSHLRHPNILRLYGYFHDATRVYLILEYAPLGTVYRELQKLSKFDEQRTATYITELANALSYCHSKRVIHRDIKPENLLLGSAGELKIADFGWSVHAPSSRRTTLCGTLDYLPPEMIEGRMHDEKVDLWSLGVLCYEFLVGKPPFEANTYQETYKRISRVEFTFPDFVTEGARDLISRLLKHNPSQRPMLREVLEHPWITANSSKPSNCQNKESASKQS

primary IMCD cells = experiment: F-actin stress fiber staining (phalloidin); assay type: cell-based, rat; conditions: compound 20 µM, 1 h
MCD4 cells = experiment: AQP2 redistribution, immunofluorescence microscopy; conditions: forskolin 30 µM, 30 min; for inhibition of the forskolin-induced redistribution of AQP2 to the plasma membrane: compound 30 µM, 1 h (Aurora-A inhibitor I 1-30 µM)
[3] = NanoBRET, HEK293T cells overexpressing the kinase, Table 2, read-out: AURKA IC50

T2 sequence (P51813 411-675): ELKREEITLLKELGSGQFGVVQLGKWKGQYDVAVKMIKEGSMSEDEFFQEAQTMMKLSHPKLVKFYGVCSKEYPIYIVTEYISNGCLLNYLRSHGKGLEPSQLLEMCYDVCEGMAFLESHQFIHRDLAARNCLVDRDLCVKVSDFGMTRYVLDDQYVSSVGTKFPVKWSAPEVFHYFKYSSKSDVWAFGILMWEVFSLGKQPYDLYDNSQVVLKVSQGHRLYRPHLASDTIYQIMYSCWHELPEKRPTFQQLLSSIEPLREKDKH
T7 sequence (O96013 291-591): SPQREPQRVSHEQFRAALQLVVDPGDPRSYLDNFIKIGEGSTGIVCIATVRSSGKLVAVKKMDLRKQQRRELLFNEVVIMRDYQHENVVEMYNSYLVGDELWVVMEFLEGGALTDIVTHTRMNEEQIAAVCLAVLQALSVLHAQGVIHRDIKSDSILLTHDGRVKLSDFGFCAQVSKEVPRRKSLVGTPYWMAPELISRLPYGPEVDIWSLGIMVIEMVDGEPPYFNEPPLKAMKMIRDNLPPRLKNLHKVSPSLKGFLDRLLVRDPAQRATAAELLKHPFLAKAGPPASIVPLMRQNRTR
T3 sequence (Q96NX5 23-277): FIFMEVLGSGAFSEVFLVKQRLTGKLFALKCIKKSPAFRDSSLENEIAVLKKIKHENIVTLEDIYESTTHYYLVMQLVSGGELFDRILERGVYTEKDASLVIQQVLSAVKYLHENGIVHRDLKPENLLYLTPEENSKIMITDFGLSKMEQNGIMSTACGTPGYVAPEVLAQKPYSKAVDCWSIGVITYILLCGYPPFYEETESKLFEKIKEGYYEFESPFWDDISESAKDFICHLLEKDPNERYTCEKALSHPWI
T6 sequence (P45983 1-364): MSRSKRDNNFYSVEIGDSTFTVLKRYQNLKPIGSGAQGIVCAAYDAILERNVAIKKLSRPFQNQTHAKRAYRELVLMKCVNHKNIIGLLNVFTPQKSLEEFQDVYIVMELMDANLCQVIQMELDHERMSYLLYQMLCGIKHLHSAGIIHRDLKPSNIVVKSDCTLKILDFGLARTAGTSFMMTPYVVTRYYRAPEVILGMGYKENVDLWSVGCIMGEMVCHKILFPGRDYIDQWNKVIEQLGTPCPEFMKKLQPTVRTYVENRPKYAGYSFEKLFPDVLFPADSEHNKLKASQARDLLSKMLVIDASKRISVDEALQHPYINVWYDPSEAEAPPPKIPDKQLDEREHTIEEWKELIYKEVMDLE
T5 sequence (P49841 35-386): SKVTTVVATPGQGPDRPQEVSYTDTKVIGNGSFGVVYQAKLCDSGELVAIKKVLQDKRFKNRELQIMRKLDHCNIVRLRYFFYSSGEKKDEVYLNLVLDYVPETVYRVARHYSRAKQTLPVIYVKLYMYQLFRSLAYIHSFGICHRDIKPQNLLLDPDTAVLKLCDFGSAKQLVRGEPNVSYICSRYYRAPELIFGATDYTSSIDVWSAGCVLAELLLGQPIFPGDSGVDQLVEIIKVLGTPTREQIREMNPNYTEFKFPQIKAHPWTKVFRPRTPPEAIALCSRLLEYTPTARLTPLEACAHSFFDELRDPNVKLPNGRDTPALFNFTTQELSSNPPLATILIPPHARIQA

Structure (SMILES) | effect on actin stress fibers (primary IMCD cells) | inhibition of the forskolin-induced redistribution of AQP2 to the plasma membrane (MCD4 cells) | ΔTm at 10 µM (AURKA [1]; compound 10 µM, n = 3) [°C] | ΔTm at 10 µM (BMX; compound 10 µM, n = 3) [°C] | ΔTm at 10 µM (CAMK1G; compound 10 µM, n = 3) [°C] | ΔTm at 10 µM (CDK2; compound 10 µM, n = 3) [°C] | ΔTm at 10 µM (GSK3B; compound 10 µM, n = 3) [°C] | ΔTm at 10 µM (MAPK8; compound 10 µM, n = 3) [°C] | ΔTm at 10 µM (PAK4; compound 10 µM, n = 3) [°C] | ΔTm at 10 µM (TTK; compound 10 µM, n = 3) [°C] | ΔTm at 10 µM (ULK3; compound 10 µM, n = 3) [°C] | ΔTm at 10 µM (VRK1; compound 10 µM, n = 3) [°C] | IC50 (AURKA [2]; [3]) [nM] | further results
CCN1CCN(C(=O)Cc2ccc(Nc3ncc(F)c(Nc4ccc(C(=O)Nc5ccccc5Cl)cc4)n3)cc2)CC1 [Aurora-A inhibitor I, reference compound] | depolymerization of actin stress fibers | inhibits |  |  |  |  |  |  |  |  |  |  |  | ΔTm at 10 µM (AURKA [1]): 15.2 °C; ΔTm at 10 µM (BMX): 2.1 °C; ΔTm at 10 µM (CAMK1G): 1.1 °C; ΔTm at 10 µM (CDK2): 1.4 °C; ΔTm at 10 µM (GSK3B): 3.1 °C; ΔTm at 10 µM (MAPK8): 3.7 °C; ΔTm at 10 µM (PAK4): 0.8 °C; ΔTm at 10 µM (TTK): 1.9 °C; ΔTm at 10 µM (ULK3): 7.6 °C; ΔTm at 10 µM (VRK1): 0.4 °C; IC50 (AURKA [2]): 183 nM; effective concentration for inhibition of AQP2 redistribution (MCD4 cells; 1, 10 or 30 µM, 1 h): greater than 1 µM
CCN1CCN(C(=O)Cc2ccc(Nc3ncc(F)c(Nc4ccc(C(=O)O)cc4)n3)cc2)CC1 [ERJ2-12] | resembled those of the control cells | not different from that in cells treated with the compound solvent, DMSO | 9.5 | 0.9 | 0.2 | 0.4 | 1 | 4.2 | 0.1 | 0.6 | 4.3 | 0.1 | > 50000 | 
CCN1CCN(C(=O)Cc2ccc(Nc3ncc(F)c(Nc4ccc(C(=O)Nc5ccccc5)cc4)n3)cc2)CC1 [ERJ2-11] | promoted or maintained the formation of actin stress fibers |  | 13.8 | 2.7 | 1.2 | 2.6 | 3.6 | 3.8 | 1.1 | 2.2 | 9.8 | 0.1 | 767 | 
O=C(Cc1ccc(Nc2ncc(F)c(Nc3ccc(C(=O)Nc4ccccc4Cl)cc3)n2)cc1)NCCN1CCOCC1 [ERJ2-04] | Comparable effects | not different from that in cells treated with the compound solvent, DMSO | 13 | 1.5 | 0.4 | 0.7 | 2 | 3.2 | 0.3 | 1.8 | 6.2 | 0.3 |  | IC50 (AURKA [2]; NanoBRET, n = 2, mean, Figure 6B, read-out: affinity to intracellular AURKA): 558 nM
NC(=O)Cc1ccc(Nc2ncc(F)c(Nc3ccc(C(=O)Nc4ccccc4Cl)cc3)n2)cc1 [ERJ2-06] | Comparable effects |  | 15.5 | 2.1 | 1.2 | 4.1 | 3.1 | 3.7 | 0.3 | 2.4 | 9.4 | 0.2 | 165 | 
